Assays:
Assay type in all cases: cell-based
[1] = target: T1, DAGLβ (diacylglycerol lipase-β) (Mus musculus, UniProt Q91WC9); assay: gel-based competitive ABPP, DAGLβ-HEK293T lysate, probe […]; details: read-out: DAGLβ % inhibition (100 nM)
T1 sequence (Q91WC9 1-669): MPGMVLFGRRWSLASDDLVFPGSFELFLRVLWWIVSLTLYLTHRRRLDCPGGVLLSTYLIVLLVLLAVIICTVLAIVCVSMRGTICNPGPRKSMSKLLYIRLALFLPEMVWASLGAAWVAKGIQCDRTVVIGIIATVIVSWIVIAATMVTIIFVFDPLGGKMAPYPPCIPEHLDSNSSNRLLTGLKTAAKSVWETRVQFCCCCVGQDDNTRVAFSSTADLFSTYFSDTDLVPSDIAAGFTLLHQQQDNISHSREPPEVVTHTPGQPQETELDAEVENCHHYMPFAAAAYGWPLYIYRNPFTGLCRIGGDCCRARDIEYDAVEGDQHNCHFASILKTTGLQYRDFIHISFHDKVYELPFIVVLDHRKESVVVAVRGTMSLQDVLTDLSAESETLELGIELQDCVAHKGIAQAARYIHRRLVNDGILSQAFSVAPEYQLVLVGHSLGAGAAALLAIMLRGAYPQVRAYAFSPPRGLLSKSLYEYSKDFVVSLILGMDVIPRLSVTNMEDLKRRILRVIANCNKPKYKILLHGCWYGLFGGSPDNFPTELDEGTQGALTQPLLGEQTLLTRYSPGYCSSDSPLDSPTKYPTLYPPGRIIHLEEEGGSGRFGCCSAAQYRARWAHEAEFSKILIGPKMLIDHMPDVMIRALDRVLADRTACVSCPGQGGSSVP

[2] = target: T1, DAGLβ (diacylglycerol lipase-β); assay: gel-based competitive ABPP, DAGLβ-HEK293T membrane lysate, probe […]; details: read-out: DAGLβ % inhibition (100 nM)
[3] = target: T1, DAGLβ (diacylglycerol lipase-β); assay: competitive ABPP-SILAC in Neuro2A; details: N2a, read-out: % inhibition at 20 μM

Compound: COc1ccccc1-c1ccc(-c2cn(C(=O)N3CCCCC3Cc3ccccc3)nn2)cc1 (racemic) [compound 27, KT172]
- inhibition at 0.1 µM [1]: 55.3%

Compound: O=C(N1CCCCC1Cc1ccccc1)n1cc(-c2ccc(-c3ccccc3)cc2)nn1 (stereo not drawn) [compound 11, KT109]
- inhibition at 0.1 µM [2]: 60.8%

Compound: Cc1cc(C)n2c1C=C1C=CC(CCC(=O)NCCCCCN(CCc3ccccc3)C(=O)n3cc(-c4ccc(OC(F)(F)F)cc4)nn3)=[N+]1[B-]2(F)F [compound 38, HT-01]
- inhibition at 20 µM [3]: > 80%
